The values below come from patent US11807693B2 (priority 2014, dated 2023).

The target of data set [1] is T1, human APJ receptor (Homo sapiens, UniProt P35414).
T1 construct: expressed in transfected cells
T1 sequence (P35414 1-380): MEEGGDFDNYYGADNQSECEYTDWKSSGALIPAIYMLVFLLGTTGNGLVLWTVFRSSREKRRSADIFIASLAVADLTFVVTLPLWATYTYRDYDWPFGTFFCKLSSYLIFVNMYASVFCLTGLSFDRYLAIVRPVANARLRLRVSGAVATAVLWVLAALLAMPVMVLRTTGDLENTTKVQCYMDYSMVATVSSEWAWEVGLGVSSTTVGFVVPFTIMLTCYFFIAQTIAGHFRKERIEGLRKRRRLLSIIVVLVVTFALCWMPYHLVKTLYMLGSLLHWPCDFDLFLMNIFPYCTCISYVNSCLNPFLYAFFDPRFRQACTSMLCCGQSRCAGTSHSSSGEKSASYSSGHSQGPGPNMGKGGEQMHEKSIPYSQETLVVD
The data set can be described thus: [35S] GTPγS assay, human APJ receptor. Format: biochemical. A general note: GTPγS resists hydrolysis and so accumulates on activated G proteins.

In data set [2] the target is T2, rat APJ receptor (Rattus norvegicus, UniProt Q9JHG3).
T2 construct: expressed in transfected cells
T2 sequence (Q9JHG3 1-377): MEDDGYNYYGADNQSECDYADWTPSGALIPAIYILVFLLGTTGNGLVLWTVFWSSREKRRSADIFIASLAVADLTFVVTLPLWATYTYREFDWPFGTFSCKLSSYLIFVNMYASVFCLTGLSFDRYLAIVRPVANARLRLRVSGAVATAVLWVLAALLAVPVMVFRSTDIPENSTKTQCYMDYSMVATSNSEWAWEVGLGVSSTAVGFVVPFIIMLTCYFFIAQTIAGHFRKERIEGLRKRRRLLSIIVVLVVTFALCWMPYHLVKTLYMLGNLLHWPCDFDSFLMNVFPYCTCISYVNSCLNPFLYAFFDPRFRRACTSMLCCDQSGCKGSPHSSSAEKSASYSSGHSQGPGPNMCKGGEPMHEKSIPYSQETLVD
The experiment in a line: [35S] GTPγS assay, rat APJ receptor. It counts as biochemical. On the procedure: The membranes were incubated with modified peptides in the assay buffer. […] Bound [^35S] GTPγS was separated from free radiolabel by filtration. The filter bound radioactivity was determined by liquid scintillation counting.

Data set [3] can be described thus: In vitro stability in rat liver homogenate. The following applies: tissue homogenate. Format: in vitro ADME. A digest of the protocol: (§1)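 Incubations: 5 μM apelin peptide, 37° C., 4 hr, in rat plasma, liver or kidney homogenate. Read-out via high resolution LC-MS after MeOH/internal standard precipitation and centrifugation.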
The nature of data set [4]: In vitro stability in rat plasma. It counts as in vitro ADME. Put shortly:
as §1

The mark [5] stands for this setting: Table 16, read-out: EC50 Rat APJ Receptor.

The structures appear in SMILES notation. Where two headings read alike, the source gives them in different places. Starred links: 1 amine or outer side, 2 acyl side, 3 side chain; linkers in the order of their positions; H or OH if unused. Non-standard residues stand in square brackets, D forms with d. Residues, ends and D or L forms follow the SMILES beside them. *: point of attachment. Oic = O=C(O)[C@@H]1C[C@@H]2CCCC[C@@H]2N1; Phe(4-Cl) = N[C@@H](Cc1ccc(Cl)cc1)C(=O)O; γGlu = O=C(O)[C@H](CCC(=O)[*:2])N[*:1]; NMehArg = CN[C@@H](CCCCNC(=N)N)C(=O)O; d(β3hF) = N[C@@H](CC(=O)O)Cc1ccccc1; NMeR = CN[C@@H](CCCNC(=N)N)C(=O)O; Palmitoyl = CCCCCCCCCCCCCCCC(=O)*; Tridecanoyl = CCCCCCCCCCCCC(=O)*; hArg = N=C(N)NCCCC[C@H](N)C(=O)O; dTic = O=C(O)[C@H]1Cc2ccccc2CN1; Cha = N[C@@H](CC1CCCCC1)C(=O)O; αMeP = C[C@@]1(C(=O)O)CCCN1; β3hP = O=C(O)C[C@@H]1CCCN1; Pip = O=C(O)[C@@H]1CCCCN1; Nle = CCCC[C@H](N)C(=O)O; Orn = NCCC[C@H](N)C(=O)O; AEEA = NCCOCCOCC(=O)O; Aib = CC(C)(N)C(=O)O

As for `CCCCCCCCCCCCC(=O)N[C@@H](CCC(=O)NCCOCCOCC(=O)NCCOCCOCC(=O)N[C@H](CCCNC(=N)N)C(=O)N[C@H](CCC(N)=O)C(=O)N[C@@H](CCCCNC(=N)N)C(=O)N1CCC[C@H]1C(=O)N[C@@H](CCCCNC(=N)N)C(=O)N[C@@H](CC1CCCCC1)C(=O)N[C@@H](CO)C(=O)N[C@@H](Cc1c[nH]cn1)C(=O)N[C@@H](CCCCN)C(=O)NCC(=O)N1[C@H](C(=O)N[C@@H](CCCC)C(=O)N2CCC[C@H]2C(=O)N[C@@H](Cc2ccc(Cl)cc2)C(=O)O)C[C@@H]2CCCC[C@@H]21)C(=O)O` [compound 481] ({Tridecanoyl-γGlu-AEEA-AEEA}-[dR][dQ][hArg]P[hArg][Cha]SHKG[Oic][Nle]P[Phe(4-Cl)]-OH), the EC50 stood at 0.177 nM in data set [1] (Table 16) and 0.341 nM in data set [2] (setting [5]).
For `CCCCCCCCCCCCC(=O)N[C@@H](CCC(=O)NCCOCCOCC(=O)NCCOCCOCC(=O)N[C@H](CCC(N)=O)C(=O)N[C@@H](CCCNC(=N)N)C(=O)N1CCC[C@H]1C(=O)N(C)[C@@H](CCCNC(=N)N)C(=O)N[C@@H](CC1CCCCC1)C(=O)N[C@@H](CO)C(=O)N[C@@H](Cc1c[nH]cn1)C(=O)N[C@@H](CCCCN)C(=O)NCC(=O)N1CCC[C@@]1(C)C(=O)N[C@@H](CCCC)C(=O)N[C@@H](Cc1ccc(Cl)cc1)C(=O)O)C(=O)O` [compound 551] ({Tridecanoyl-γGlu-AEEA-AEEA}-[dQ]RP[NMeR][Cha]SHKG[αMeP][Nle][Phe(4-Cl)]-OH), in that order: 0.235 nM and 1.15 nM.
As for `CCCCCCCCCCCCCCCC(=O)N[C@@H](CCC(=O)NCCOCCOCC(=O)NCCOCCOCC(=O)N[C@H](CCC(N)=O)C(=O)N[C@@H](CCCNC(=N)N)C(=O)N1CCC[C@H]1C(=O)N(C)[C@@H](CCCNC(=N)N)C(=O)N[C@@H](CC1CCCCC1)C(=O)N[C@@H](CO)C(=O)N[C@@H](Cc1c[nH]cn1)C(=O)N[C@@H](CCCN)C(=O)NCC(=O)N1[C@H](C(=O)N[C@@H](CCCC)C(=O)N2CCC[C@H]2CC(=O)N[C@@H](CC(=O)O)Cc2ccccc2)C[C@@H]2CCCC[C@@H]21)C(=O)O` [compound 618] ({Palmitoyl-γGlu-AEEA-AEEA}-[dQ]RP[NMeR][Cha]SH[Orn]G[Oic][Nle][β3hP][d(β3hF)]-OH), the EC50 in data set [1] (human APJ receptor) was 2.47 nM; in data set [2] (rat APJ receptor, read-out: EC50 Rat APJ Receptor), 11.1 nM.
As for `CCCCCCCCCCCCC(=O)N[C@@H](CCC(=O)NCCOCCOCC(=O)NCCOCCOCC(=O)N[C@@H](CCC(N)=O)C(=O)N[C@@H](CCCNC(=N)N)C(=O)N1CCC[C@H]1C(=O)N(C)[C@@H](CCCCNC(=N)N)C(=O)N[C@@H](CC(C)C)C(=O)N[C@@H](CO)C(=O)N[C@@H](Cc1c[nH]cn1)C(=O)N[C@@H](CCCCN)C(=O)NCC(=O)N1CCC[C@H]1C(=O)N[C@@H](CCCC)C(=O)N1CCC[C@H]1C(=O)N[C@@H](Cc1ccc2ccccc2c1)C(=O)O)C(=O)O` [compound 471], the EC50 in data set [1] (Table 16) is 0.0229 nM. The fraction remaining at 4 h, 5 μM in data set [3] is less than 1%; in data set [4] it was 52%.
As for `CCCCCCCCCCCCCCCC(=O)N[C@@H](CCC(=O)NCCOCCOCC(=O)NCCOCCOCC(=O)N[C@H](CCC(N)=O)C(=O)N[C@@H](CCCNC(=N)N)C(=O)N1CCC[C@H]1C(=O)N(C)[C@@H](CCCNC(=N)N)C(=O)N[C@@H](CC1CCCCC1)C(=O)N[C@@H](CO)C(=O)N[C@@H](Cc1c[nH]cn1)C(=O)N[C@@H](CCCCN)C(=O)NCC(=O)N1CCCC[C@H]1C(=O)N[C@@H](CCCC)C(=O)N1CCCC(C(=O)N[C@@H](Cc2ccc(Cl)cc2)C(=O)O)C1)C(=O)O` (single isomer, unassigned) [compound 588], the EC50 in data set [1] (human APJ receptor) came out at 1.52 nM. For the same compound, the fraction remaining at 4 h, 5 μM in data set [4] is greater than 90%.
For the compound `CCCCCCCCCCCCC(=O)N[C@@H](CCC(=O)NCCOCCOCC(=O)NCCOCCOCC(=O)N[C@@H](CCC(N)=O)C(=O)N[C@@H](CCCNC(=N)N)C(=O)N1CCC[C@H]1C(=O)N(C)[C@@H](CCCNC(=N)N)C(=O)N[C@@H](CC1CCCCC1)C(=O)N[C@@H](CO)C(=O)N[C@@H](Cc1c[nH]cn1)C(=O)N[C@@H](CCCCN)C(=O)NCC(=O)N1CCCC[C@H]1C(=O)N[C@@H](CCCC)C(=O)N1CCC[C@H]1C(=O)N[C@@H](Cc1ccc(Cl)cc1)C(=O)O)C(=O)O` [compound 416] ({Tridecanoyl-γGlu-AEEA-AEEA}-QRP[NMeR][Cha]SHKG[Pip][Nle]P[Phe(4-Cl)]-OH), in data set [1] (Table 16), the 50% effective concentration (EC50) worked out at 0.192 nM. Further, in data set [4], the amount remaining at 4 h, 5 μM came out at 57.7%.
`CCCCCCCCCCCCCCCC(=O)N[C@@H](CCC(=O)NCCOCCOCC(=O)NCCOCCOCC(=O)N[C@H](CCC(N)=O)C(=O)N[C@@H](CCCNC(=N)N)C(=O)N1CCC[C@H]1C(=O)N(C)[C@@H](CCCNC(=N)N)C(=O)N[C@@H](CC1CCCCC1)C(=O)N[C@@H](CO)C(=O)N[C@@H](Cc1c[nH]cn1)C(=O)N[C@@H](CCCCN)C(=O)NCC(=O)N1CCCC[C@H]1C(=O)N[C@@H](CCCC)C(=O)N1CCC[C@H]1C(=O)N1Cc2ccccc2C[C@@H]1C(=O)O)C(=O)O` [compound 599] ({Palmitoyl-γGlu-AEEA-AEEA}-[dQ]RP[NMeR][Cha]SHKG[Pip][Nle]P[dTic]-OH) returned an EC50 in data set [1] (human APJ receptor) of 0.44 nM.
`CCCC[C@H](NC(=O)[C@@H]1CCCN1C(=O)CNC(=O)[C@H](CCCCN)NC(=O)[C@H](Cc1c[nH]cn1)NC(=O)[C@H](CO)NC(=O)[C@H](CC(C)C)NC(=O)[C@H](CCCCNC(=N)N)N(C)C(=O)[C@H](CCCNC(=N)N)NC(=O)[C@H](CCC(N)=O)NC(C)=O)C(=O)N1CCC[C@H]1C(=O)N[C@@H](Cc1ccc(Cl)cc1)C(=O)O` [compound 73] (Ac-QR[NMehArg]LSHKGP[Nle]P[Phe(4-Cl)]-OH) gave an EC50 in data set [1] (human APJ receptor) of 1.81 nM.
Regarding `CCCCCCCCCCCCC(=O)N[C@@H](CCC(=O)NCCOCCOCC(=O)NCCOCCOCC(=O)N[C@@H](CC(N)=O)CC(=O)N[C@@H](CCCNC(=N)N)C(=O)N1CCC[C@H]1C(=O)N(C)[C@@H](CCCNC(=N)N)C(=O)N[C@@H](CC(C)C)C(=O)N[C@@H](CO)C(=O)N[C@@H](Cc1c[nH]cn1)C(=O)N[C@@H](CCCCN)C(=O)NCC(=O)N1CCC[C@H]1C(=O)N[C@@H](CCCC)C(=O)N1CCC[C@H]1C(=O)N[C@@H](Cc1ccc(Cl)cc1)C(=O)O)C(=O)O` [compound 420], a half-maximal response in data set [1] (human APJ receptor) (EC50) required 0.0526 nM.
`CCCCCCCCCCCCCCCC(=O)N[C@@H](CCC(=O)NCCOCCOCC(=O)NCCOCCOCC(=O)N[C@H](CCC(N)=O)C(=O)N[C@@H](CCCNC(=N)N)C(=O)N1CCC[C@H]1C(=O)N(C)[C@@H](CCCNC(=N)N)C(=O)N[C@@H](CC1CCCCC1)C(=O)N[C@@H](CO)C(=O)N[C@@H](Cc1c[nH]cn1)C(=O)N[C@@H](CCCCN)C(=O)NCC(=O)N1CCC[C@H]1CC(=O)N[C@@H](CCCC)C(=O)N[C@@H](Cc1ccc(Cl)cc1)C(=O)O)C(=O)O` [compound 613] ({Palmitoyl-γGlu-AEEA-AEEA}-[dQ]RP[NMeR][Cha]SHKG[β3hP][Nle][Phe(4-Cl)]-OH) registered an EC50 in data set [1] (human APJ receptor) of 1.66 nM.
`CCCCCCCCCCCCCCCC(=O)N[C@@H](CCC(=O)NCCOCCOCC(=O)NCCOCCOCC(=O)N[C@H](CCC(N)=O)C(=O)N[C@@H](CCCNC(=N)N)C(=O)N1CCC[C@H]1C(=O)N(C)[C@@H](CCCNC(=N)N)C(=O)N[C@@H](CC1CCCCC1)C(=O)N[C@@H](CO)C(=O)N[C@@H](Cc1c[nH]cn1)C(=O)N[C@@H](CCCCN)C(=O)NCC(=O)N1CCCC[C@H]1C(=O)NC(C)(C)C(=O)N[C@@H](Cc1ccc(Cl)cc1)C(=O)O)C(=O)O` [compound 581] ({Palmitoyl-γGlu-AEEA-AEEA}-[dQ]RP[NMeR][Cha]SHKG[Pip][Aib][Phe(4-Cl)]-OH) yielded an EC50 in data set [1] (human APJ receptor) of 1.4 nM.

In general, EC50 refers to the concentration needed to bring the measured effect to its halfway point. One may read the share remaining as what is left of the initial amount, in per cent.
